Data as given in patent US20230326554A1, “IDENTIFYING TREATMENT RESPONSE SIGNATURES” (Rutgers, The State University of New Jersey, priority 2022, published 2023).

Legend:
Type in all cases: cell-based, human
C42B-EnzaRes cells [1] = test: Boyden chamber-based in vitro migration assay; settings: for cell migration with NME2 knockdown added: C42B-EnzaRes cells with knockdown of NME2
Method: (§1) FIGS. 21A-21F show MYC targeting is beneficial for patients in Enzalutamide-resistant conditions. (FIG. 21A) Drug sensitivity curves of Enzalutamide-naïve, or Enzalutamide-resistant (EnzaRes) C42B cells treated with MYCi975. (FIG. 21B) Colony formation assay using Enzalutamide-resistant (EnzaRes) C42B cells in Intact (treated with DMSO), treated with Enzalutamide (10 μM), MYCi975 (2 μM), or a combination of Enzalutamide+MYCi975 (10 μM+2 μM). Cells were grown in the presence of respective drugs. Representative images are shown. P-value was estimated using a one-tailed Welch t-test. (FIG. 21C) Boyden chamber-based in vitro migration assay using Enzalutamide-resistant (EnzaRes) C42B cells in Intact (treated with DMSO), treated with Enzalutamide (10 μM), MYCi975 (2 μM), or a combination of Enzalutamide+MYCi975 (10 μM+2 μM). Bars represent the quantification of Crystal Violet trapped by migrated cells. P-value was estimated using a one-tailed Welch t-test. (FIG. 21D) Expression of NME2 in Intact and Enzalutamide-resistant (EnzaRes) C42B cells, using the qRT-PCR. P-value was estimated using the one-tailed Welch t-test. (FIG. 21E) Two different siRNAs targeting NME2 were used to downregulate NME2 (left panel) and its effect on MYC expression using qRT-PCR is shown (right panel). (FIG. 21F) Boyden chamber-based in vitro migration assay using Enzalutamide-resistance (EnzaRes) C42B cells in Intact (treated with DMSO) or treated with a combination of Enzalutamide+MYCi975 (10 μM+2 μM) with or without knockdown of NME2. Bars represent the quantification of Crystal Violet trapped by migrated cells. * p-value<0.05, ** p-value≤0.01, *** p-value≤0.001

C42B-EnzaRes cells [2] = test: colony formation assay; settings: MYCi975 2 μM, Enzalutamide 10 μM, compared to Intact (DMSO)
Method: as §1, with “(FIG. 21E) Two different siRNAs targeting NME2 were used to downregulate NME2 (left panel) and its effect on MYC expression using qRT-PCR is shown (right panel). (FIG. 21F) Boyden chamber-based in vitro migration assay using Enzalutamide-resistance (EnzaRes) C42B cells in Intact (treated with DMSO) or treated with a combination of Enzalutamide+MYCi975 (10 μM+2 μM) with or without knockdown of NME2.” left out, “p-value≤0.001 […]” for “p-value≤0.001”

LNCaP-EnzaRes cells = test: colony formation assay; settings: MYCi975 2 μM, Enzalutamide 10 μM, compared to Intact (DMSO)
Method: (§2) FIGS. 22A and 22B show MYC inhibition reduces viability and colony formation in Enzalutamide resistant conditions. (FIG. 22A) Drug response curves of Enzalutamide naïve LNCaP or Enzalutamide-resistant LNCaP cells treated with Enzalutamide and/or MYC-i975. (FIG. 22B) Colony formation assay using Enzalutamide-resistant LNCaP cells t(LNCaP-Enza-Res) in intact (treated with DMSO), treated with enzalutamide (10 μM), MYC-i975 (2 μM), or a combination of Enzalutamide+MYC-i975 (10 μM+2 μM). Cells were grown in the presence of respective drugs. Bars represent quantification of Crystal Violet trapped by migrated cells. P-value is estimated utilizing one-tailed Welch t-test. * p<0.05, *** p≤0.001.
(§3) Generation of Enzalutamide-resistant cell lines: LNCaP (clone FDG) and C42B cells were purchased from ATCC and were grown in RPMI1640 media (GIBCO # 11875093) supplemented with 10% Fetal Bovine Serum (FBS, Corning Cat#35-011-CV) and maintained at […] in and 5% CO2. Enzalutamide powder was purchased from Sellekchem (cat #S1250) and re-suspended in DMSO. Cells were plated in 6 well plates and treated either with DMSO, or with Enzalutamide (20 uM), refreshed every 4 days for up to 3 months until the resistance emerged. RNA from cells was extracted on indicated days using the methods described below. […]

C42B cells = test: dose-response cell viability assay; settings: Enzalutamide-naïve and Enzalutamide-resistant conditions, varying doses, dose-dependent
Method: as §1, with “(FIG. 21E) Two different siRNAs targeting NME2 were used to downregulate NME2 (left panel) and its effect on MYC expression using qRT-PCR is shown (right panel). (FIG. 21F) Boyden chamber-based in vitro migration assay using Enzalutamide-resistance (EnzaRes) C42B cells in Intact (treated with DMSO) or treated with a combination of Enzalutamide+MYCi975 (10 μM+2 μM) with or without knockdown of NME2.” left out, “p-value≤0.001 […]” for “p-value≤0.001”

LNCaP cells = test: dose-response cell viability assay; settings: Enzalutamide-naïve and Enzalutamide-resistant conditions, varying doses, dose-dependent
Method: as §2, §3

MYC = test: doxycycline-inducible shRNA knockdown of NME2, Western blot; settings: C4-2B cells, 0-2000 ng/mL doxycycline for 96 hours
Method: Finally, C4-2B cells expressing doxycycline-inducible shRNA targeting NME2 were generated using the targeting sequence […] (SEQ ID NO: 9). Cells were treated with 0-2000 ng/mL doxycycline for 96 hours and NME2 and MYC expression were evaluated by Western blot.

Row | Compound | cell migration with NME2 knockdown added (C42B-EnzaRes cells [1]) | cell migration (C42B-EnzaRes cells [1]; C42B-EnzaRes cells, MYCi975 2 μM, Enzalutamide 10 μM, compared to Intact (DMSO)) | colony formation (C42B-EnzaRes cells [2]) | colony formation (LNCaP-EnzaRes cells) | cell viability (C42B cells) | cell viability (LNCaP cells) | MYC expression (MYC)
1 | Cn1nc(C(F)(F)F)cc1-c1ccc(OCc2ccc(Cl)cc2)c(-c2ccc(Cl)c(C(F)(F)F)c2)c1O [MYCi975] | further reduced | significant reduction in cell migration | reduced the colony formation | reduced the colony formation | striking reduction of the cell viability | striking reduction of the cell viability | –
2 | CNC(=O)c1ccc(N2C(=S)N(c3ccc(C#N)c(C(F)(F)F)c3)C(=O)C2(C)C)cc1F [Enzalutamide] | low metastatic capability | – | – | – | – | – | –
3 | shRNA targeting NME2: doxycycline-inducible shRNA targeting NME2, targeting sequence GAAATCAGCCTATGGTTTAAG (SEQ ID NO: 9) | – | – | – | – | – | – | suppresses MYC expression
